“Also recorded” adds a separate entry of the source. Read-outs that look alike come from different tables or passages of the source.
Legend:
[1] = tested on: 23 kDa heat shock protein gene promoter (hsp23-β-galactosidase hybrid gene); assay: Drosophila heat shock hybrid gene expression assay (colorimetric beta-galactosidase assay) in primary embryonic cells from transformed flies; details: for FOLD INDUCTION OF B-GAL ACTIVITY: Experiment I, strain 700.2 embryonic cells, relative to nontreated cells
Source text: A representative hybrid gene in accordance with the above description includes a 23 kDa heat shock protein gene fragment beginning at the Pst I site 1.5 kb upstream from and extending through the transcription start site and the entire RNA leader region to a Pvu II site at codon 45 of the 23 kDa protein coding sequence, inserted upstream from a truncated (at codon 7 or 8) E. coli β-galactosidase gene. It addition, a 2.4-kb-long segment containing 3' nontranslated and nontranscribed sequences from a D. melanogaster 70 kDa heat shock protein gene is placed downstream from the β-galactosidase gene.
For the experiments with teratogens described below, only the 700 lines (see Table 2) were used. These lines carry a hybrid gene controlled by a 554 nucleotide-long segment of the 23 kDa heat shock protein gene promoter.
Preparation of embryos, cultures of primary cells, and incubation with teratogens
1. A creamy paste of yeast is placed on a piece of wet filter paper and such coated paper: deposited on 150 mm food plates. Embryos are then collected on these plates for 3 hours (inside a large fly cage). (For additional details, see the appended Materials and Methods section.)
2. The plates with the embryos are incubated further for 3.5 hours (embryos will reach the gastrulation stage).
3. The filter paper containing yeast is discarded. The plates are flooded with water, the embryos are brushed down, passed through a 1 mm (pore size) mesh and then collected on a 90 μm mesh.
4. Embryos are washed extensively with water. Subsequently they are picked up with a spatula and are placed into a solution of 10 ml chlorox/10 ml ethanol (95%). After a brief incubation, the embryos are transferred to a sintered glass funnel attached to a vacuum line and are washed with several volumes of sterile distilled water, No more than 2 minutes should elapse between the first exposure of the embryos to chlorox-ethanol solution and the beginning of the wash steps.
5. The embryos are then washed in 6 ml of culture medium. It is important to note that the embryos are not allowed to dry out during the wash procedure.
6. The wet embryos are transferred with a blunt spatula into a homogenizer containing 7 ml of culture medium. (Alternatively, they can be washed down into the homogenizer with medium.)
7. Three gentle passes are made with the loose fitting pestle.
8. Cell aggregates are broken up by repeated pipetting with a 1 ml pipette, and the cell suspension is passed through a 53 μm mesh.
9. The filtrate is collected in a 15 ml sterile disposable centrifuge tube and spun at 1800 rpm for 4 minutes (at room temperature).
10. The supernatant is decanted, and the cells are washed once more with 4 ml of medium.
11. The cells are finally suspended in 4 ml medium by repeated pipetting with a 1 ml pipette and are counted on a hemocytometer.
12. The cells are plated in 35 mm dishes at a density of 3.2×10^6cells per 2 ml of medium.
13. Forty-five minutes later the medium is removed from each dish, and 2 ml of fresh medium containing the chemical to be tested for teratogenicity is added. The culture is then incubated at 22° C. for 20 hrs. […] The cells are subsequently processed for the β-galactosidase assay (see below).
1. Cells in 35 mm dishes are washed once with phosphate-buffered saline and are then transferred to 15 ml centrifuge tubes.
2. The cells are collected by centrifugation (clinical centrifuge, 2000 rpm, 5 min) and are taken up in 350 μl of Z buffer (defined below) containing 0.5% of Nonidet NP40. The cells are lysed by repeated pipetting. Lysates are transferred to 1.5 ml Eppendorf tubes.
3. After a 5 minute spin (in the Eppendorf centrifuge) the supernatants are transferred to another set of tubes.
4. To 200 μl of this extract, 275 μl of substrate solution ONPG (4 mg/ml) in Z-buffer is added. The assays are run with straight as well as with diluted extract samples.
5. The reactions are incubated at 37° C. for 30 min.

[2] = shown in animal experiments; cited from earlier work
[3] = tested on: 23 kDa heat shock protein gene promoter (hsp23-β-galactosidase hybrid gene) in S3 cells; assay: Hybrid gene (23 kDa heat shock protein-β-galactosidase) activity in transfected S3 cells; assay type: cell-based, Drosophila melanogaster; details: for E. coli-specific B-galactosidase, + ecdysterone: 3 μM, ELISA
Source text: The Drosophila melanogaster 23 kDa heat shock protein gene has been cloned and characterized by Voellmy et al. (Cell 23:261-270, 1981). Segments containing extensive 5' nontranscribed sequences from the 23 kDa heat shock protein gene, the RNA leader region, and part of the protein-coding region were linked in frame to an E. coli β-galactosidase gene. The resulting constructs encode a hybrid protein with β-galactosidase activity that is made under the control of the linked heat shock gene sequences (Lawson, R., et al., Dev. Biol. […], 1985). These constructs were introduced into Drosophila melanogaster S3 cells (an established cell line) by transfection (Lawson, R., et al., Mol. Gen. Genet. 198:116-124, 1984).
The construction of 23 kDa heat shock protein-β-galactosidase hybrid genes had been described (Lawson, R., et al., Dev. Biol. 110:321-330, 1985). The structure of a representative construct, p523/35, is shown in FIG. 4 (modified from Mestril, R., et al., EMBO J. 5(7):1667-1673, 1986). […] Hybrid gene activity was assessed in cell extracts both by a colorimetric enzymatic assay and by ELISA using antibodies specific for E. coli β-galactosidase (Lawson, R., et al., Dev. Biol. 110:321-330, 1985).
Derivatives of this basic construct that contained 23 kDa heat shock gene promoter sequences of different lengths were prepared, and their activity was tested using heat shock in transfected S3 cells (Mestril, R., et al., EMBO J. 4:2971-2976, Mestril, R., et al., EMBO J. 5:1667-1673, 1986).
A list of the cp20.1 derivatives of hybrid genes with 23 kDA heat shock protein gene promoter segments of different lengths is shown in Table 1. The functionality of the genes was tested in cultured Drosophila melanogaster S3 cells. Transfected cells were either heat-treated (not shown), exposed for one day at 3 μM ecdysterone, or not treated. Levels of β-galactosidase in extracts were measured by the ELISA procedure described in Mestril et al., EMBO J. 5:1667-1673, 1986.
Levels of Bgalactosidase were measured in cell extracts using the ELISA
protocol described in Mestril et al., 1986 (Mestril,R., Schiller,P.,
Amin,J., Klapper,H., Ananthan,J. and Voellmy,R. (1986) EMBO J.

[4] = use by pregnant women; cited from earlier work
[5] = tested on: small heat shock genes; details: ecdysterone added to the medium; Ireland et al. 1982; cited from earlier work
[6] = tested on: 23 kDa heat shock protein gene promoter (hsp23-β-galactosidase hybrid gene) in S3 cells; details: following exposure to ecdysterone; Lawson et al. 1985; Mestril et al.; cited from earlier work
[7] = Drosophila melanogaster, 20 h, read-out: FOLD INDUCTION OF B-GAL ACTIVITY
[8] = Drosophila melanogaster, 20 h, read-out: Fold Induction of B-Gal Activity

Structure (SMILES): Nc1ncn([C@H]2C[C@H](O)[C@@H](CO)O2)c(=O)n1 [5-DEOXY-2' AZACYTIDINE]
- FOLD INDUCTION OF B-GAL ACTIVITY ([1]; 0.01 mM, 20 hrs): 4 FOLD

Structure (SMILES): CC(=O)Oc1ccccc1C(=O)O [ACETYL SALICYCLIC ACID]
- CLASS (teratogen T / nonteratogen NT) [2]: weak T
- FOLD INDUCTION OF B-GAL ACTIVITY ([1]; 1.0 mM, 20 hrs): 1.5 FOLD

Structure (SMILES): O=[As](O)(O)O [ARSENATE]
- FOLD INDUCTION OF B-GAL ACTIVITY ([1]; 0.2 mM, 20 hrs): 8 FOLD

Structure (SMILES): O=c1ccc2ccccc2o1 [COUMARIN]
- fold induction at 1000 µM [1, 7]: 5
- hybrid gene activity in S3 cells (in words) [3]: did not induce hybrid gene activity

Structure (SMILES): Cn1c(=O)c2c(ncn2C)n(C)c1=O [Caffeine]
- fold induction at 1000 µM [1, 8]: 1.02

Structure (SMILES): [Cl][Cd][Cl] [Cd Cl2]
- FOLD INDUCTION OF B-GAL ACTIVITY ([1]; 0.25 mM, 20 hrs): 7 FOLD

Structure (SMILES): CC/C(=C(/CC)c1ccc(O)cc1)c1ccc(O)cc1 [DIETHYL STILBOSTEROL]
- fold induction at 10 µM [1, 7]: 7

Structure (SMILES): C[S+](C)[O-] [DIMETHYL SULFOXIDE]
- fold induction at 1000 µM [1, 7]: 1

Structure (SMILES): O=C1NC(=O)C(c2ccccc2)(c2ccccc2)N1 [DIPHENYLHYDANTOIN, DIPHENYL-HYDANTOIN]
- fold induction at 100 µM [1, 7]: 2

Structure (SMILES): CCO [ETHYL ALCOHOL]
- fold induction at 160000 µM [1, 7]: 1.2

Structure (SMILES): [Cl][Hg][Cl] [Hg Cl2]
- FOLD INDUCTION OF B-GAL ACTIVITY ([1]; 0.005 mM, 20 hrs): 3 FOLD

Structure (SMILES): [Pb] [Lead]
- Fold Induction of B-Gal Activity ([1]; Experiment II, 2.5 mM, 20 hrs, relative to nontreated cells (see Table 3)): 15.78 Fold
- synthesis of β-galactosidase in primary embryonic cells (in words) ([1]; primary embryonic cells from transformed flies): directs the synthesis of β-galactosidase

Structure (SMILES): CC(=O)[C@H]1CC[C@H]2[C@@H]3CCC4=CC(=O)CC[C@]4(C)[C@H]3CC[C@]12C [PROGESTERONE]
- fold induction at 10 µM [1, 7]: 1

Structure (SMILES): CC1=C(/C=C/C(C)=C/C=C/C(C)=C/C(=O)O)C(C)(C)CCC1 [RETINOIC ACID (ALL TRANS)]
- fold induction at 50 µM [1, 7]: 5

Structure (SMILES): O=C1CCC(N2C(=O)c3ccccc3C2=O)C(=O)N1 (stereo not shown) [Thalidomide]
- synthesis of β-galactosidase in primary embryonic cells (in words) [1]: directs the synthesis of β-galactosidase
- fold induction at 1000 µM [1, 8]: 2.73
- babies suffering from phocomelia [4]: ~10,000 babies

Structure (SMILES): CN1C(=O)CN=C(c2ccccc2)c2cc(Cl)ccc21 [Valium]
- fold induction at 1000 µM [1, 8]: 6.5

Structure (SMILES): CC(C)(O)CC[C@@H](O)[C@](C)(O)[C@H]1CC[C@@]2(O)C3=CC(=O)[C@@H]4C[C@@H](O)[C@@H](O)C[C@]4(C)[C@H]3CC[C@]12C [ecdysterone]
- activation of the small heat shock genes (in words) [5]: activation of the genes
- fold induction at 10 µM [1, 7]: 2
- synthesis of β-galactosidase in transfected S3 cells (in words) [6]: produced E. coli-specific β-galactosidase; also recorded: directed the synthesis of β-galactosidase
- E. coli-specific B-galactosidase, + ecdysterone ([3]; 63 bp 5' nontranscribed segment, one day, 0.0 without ecdysterone): 0.1
- E. coli-specific B-galactosidase, + ecdysterone ([3]; 147 bp 5' nontranscribed segment, one day): 0.1
- E. coli-specific B-galactosidase, + ecdysterone ([3]; 197 bp 5' nontranscribed segment, one day): 0.1
- E. coli-specific B-galactosidase, + ecdysterone ([3]; 275 bp 5' nontranscribed segment, one day): 0.3
- E. coli-specific B-galactosidase, + ecdysterone ([3]; 295 bp 5' nontranscribed segment, one day): 0.6
- E. coli-specific B-galactosidase, + ecdysterone ([3]; 333 bp 5' nontranscribed segment, one day, 0.0 without ecdysterone): 1.0
- E. coli-specific B-galactosidase, + ecdysterone ([3]; 363 bp 5' nontranscribed segment, one day): 1.1
- E. coli-specific B-galactosidase, + ecdysterone ([3]; 379 bp 5' nontranscribed segment, one day, 0.1 without ecdysterone): 2.0
- E. coli-specific B-galactosidase, + ecdysterone ([3]; 554 bp 5' nontranscribed segment, one day): 1.0
- hybrid gene activity of constructs (in words) ([3]; several constructs, longest promoter segments, 3 μM ecdysterone, one day, inactive in untreated cells): active

— patent publication US5346812A, “Teratogen assay” (priority 1992, dated 1994)
